We go through eleven compounds from PubChem BioAssay (NCI).

SMILES strings stand for the structures.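 Dose response: 5 concentrations. Exposure: 48 h. Format: 96-well plates. Endpoint: linear interpolation; highest concentration if not reached. At the GI50, growth is halved. TGI: concentration producing complete growth inhibition.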

Among the test systems are SK-MEL-2 melanoma; UACC-62 melanoma; 786-0 renal; NCI-H226 lung; HOP-92 NSCLC; HOP-62 NSCLC; UACC-257 melanoma; SK-MEL-5 melanoma; HL-60(TB) leukemia; MOLT-4 leukemia.
What all share (assay): inhibition of tumour cell growth, NCI panel, 48 h

For the compound `CNC(P(=O)([O-])[O-])P(=O)([O-])[O-].N.N.[Pt+2]`, the GI50 in the assay on SK-MEL-2 melanoma, in the assay with UACC-62 melanoma, in the assay on 786-0 renal and in the assay on NCI-H226 lung was more than 100 µM in each case. Moreover, the TGI with SK-MEL-2 melanoma, in the assay on UACC-62 melanoma, with 786-0 renal and with NCI-H226 lung was more than 100 µM throughout.
Turning to `COC(=O)N[C@H]1CCc2c(Br)c(OC)c(OC)c(OC)c2-c2ccc(SC)c(=O)cc21`, the GI50 was less than 0.0171 µM in the assay with HOP-92 NSCLC; less than 0.01 µM in the assay with HOP-62 NSCLC; 11.4 µM in the assay with UACC-257 melanoma; less than 0.01 µM with SK-MEL-5 melanoma; less than 0.01 µM in the assay with HL-60(TB) leukemia; less than 0.01 µM with UACC-62 melanoma. Moreover, the GI50 in the assay on 786-0 renal is less than 0.0163 µM; in the assay on MOLT-4 leukemia it was less than 0.01 µM; in the assay with NCI-H226 lung it was less than 0.01 µM. Besides, the TGI with HOP-92 NSCLC is 5.17 µM; with HOP-62 NSCLC it was more than 100 µM; with UACC-257 melanoma, 61.2 µM; in the assay with SK-MEL-5 melanoma, 0.0182 µM; with HL-60(TB) leukemia, less than 0.01 µM; in the assay on UACC-62 melanoma, 18 µM. Also, the values for the TGI in the assay with 786-0 renal, in the assay on MOLT-4 leukemia and with NCI-H226 lung were 24.8 µM, 21.7 µM and 10.8 µM, respectively.
In the case of `O=C(c1ccccc1)C(c1ccccc1)C1(O)C(=O)Nc2c(Cl)cc(Cl)cc21` (centres undefined), the TGI with SK-MEL-2 melanoma is 33 µM; with HOP-92 NSCLC, 40 µM; in the assay on UACC-257 melanoma, 35 µM; in the assay on SK-MEL-5 melanoma, 30.7 µM; in the assay with HL-60(TB) leukemia it was 39.5 µM; with 786-0 renal it was 29.8 µM. In addition, the TGI in the assay with MOLT-4 leukemia was determined as 61.9 µM; in the assay with NCI-H226 lung it was 32.6 µM.
`CC1=C(C)C(=O)c2c(cc3ccc4ccccc4n23)C1=O`: the TGI in the assay with SK-MEL-5 melanoma, with HL-60(TB) leukemia, in the assay with UACC-62 melanoma, with 786-0 renal, in the assay on MOLT-4 leukemia and with NCI-H226 lung was more than 100 µM throughout.
Consider `COc1nc(N(C)O)nc(N(C)O)n1`, for which the GI50 in the assay with SK-MEL-2 melanoma is 6.1 µM; with HOP-62 NSCLC it was 0.442 µM; in the assay with UACC-257 melanoma, 3.52 µM; in the assay on SK-MEL-5 melanoma, 1.47 µM; in the assay on HL-60(TB) leukemia it was 1.68 µM; in the assay on UACC-62 melanoma it was 2.28 µM. The GI50 with 786-0 renal was 3.74 µM; with MOLT-4 leukemia it was 0.885 µM; in the assay on NCI-H226 lung, 2.48 µM. In addition, the TGI is more than 100 µM in the assay on SK-MEL-2 melanoma; 6.3 µM in the assay with HOP-62 NSCLC; more than 100 µM in the assay with UACC-257 melanoma; 23.1 µM in the assay with SK-MEL-5 melanoma; 9.1 µM with HL-60(TB) leukemia; 9.92 µM in the assay on UACC-62 melanoma. Moreover, the results for the TGI in the assay with 786-0 renal, in the assay on MOLT-4 leukemia and with NCI-H226 lung were 33.2 µM, more than 100 µM and 55.4 µM, respectively.
On to `CCOc1cc2ncc(C#N)c(Nc3ccc(OCc4cccc(F)c4)c(Cl)c3)c2cc1NC(=O)CC1CCSS1` (centres undefined), for which the GI50 with SK-MEL-2 melanoma was 0.99 µM; in the assay on HOP-92 NSCLC, more than 11.5 µM; in the assay on UACC-257 melanoma, 24.5 µM; in the assay with SK-MEL-5 melanoma, 2.39 µM; with HL-60(TB) leukemia it was 3.48 µM; in the assay on UACC-62 melanoma, more than 25 µM. In addition, the GI50 with 786-0 renal was more than 13.8 µM; with NCI-H226 lung it was 11 µM. In addition, the TGI in the assay with SK-MEL-2 melanoma is more than 7.13 µM; with HOP-92 NSCLC, more than 25 µM; in the assay with HOP-62 NSCLC it was more than 15.1 µM; in the assay with UACC-257 melanoma, more than 25 µM; in the assay on SK-MEL-5 melanoma, more than 25 µM; in the assay with HL-60(TB) leukemia, more than 25 µM. In addition, the TGI with UACC-62 melanoma, in the assay with 786-0 renal and with NCI-H226 lung was more than 25 µM in each case.
As to `COc1cc(CCc2ccc(OCCN(C)C)cc2)cc(OC)c1OC`, the TGI in the assay with HOP-92 NSCLC was more than 100 µM; in the assay with HOP-62 NSCLC it was more than 100 µM; in the assay on UACC-257 melanoma it was more than 100 µM; with SK-MEL-5 melanoma, 64.6 µM; with HL-60(TB) leukemia, more than 100 µM; in the assay on UACC-62 melanoma it was more than 100 µM. In addition, the TGI in the assay with 786-0 renal, in the assay with MOLT-4 leukemia and with NCI-H226 lung was more than 100 µM throughout.
With `COc1ccc2cc(C(=O)/C=C/c3cc(OC)c(OC)c(OC)c3)ccc2c1`, the GI50 in the assay with HOP-92 NSCLC was 21.9 µM; with HOP-62 NSCLC it was 9.88 µM; in the assay with SK-MEL-5 melanoma, 0.0737 µM; in the assay on HL-60(TB) leukemia, 5.34 µM; in the assay with UACC-62 melanoma, 5.25 µM; with 786-0 renal, 7.61 µM. The GI50 in the assay on MOLT-4 leukemia was 2.91 µM. For the same compound, the TGI is more than 50 µM with HOP-92 NSCLC; 20.8 µM with HOP-62 NSCLC; 1.01 µM in the assay on SK-MEL-5 melanoma; 20.9 µM with HL-60(TB) leukemia; 12.7 µM in the assay on UACC-62 melanoma; 15.7 µM with 786-0 renal. In the assay on MOLT-4 leukemia, this compound returned a TGI of more than 50 µM.
For `COc1ccc(-c2nc3sc(C)cn3c2/C=C/C(=O)c2cc(OC)c(OC)c(OC)c2)cc1`, the GI50 was 4.28 µM with HOP-62 NSCLC; 2.49 µM with UACC-257 melanoma; 1.51 µM in the assay on SK-MEL-5 melanoma; 2.49 µM in the assay on HL-60(TB) leukemia; 2.82 µM with UACC-62 melanoma; 5.31 µM in the assay on 786-0 renal. Also, the GI50 in the assay with NCI-H226 lung was 4.12 µM. Further, the TGI was more than 100 µM with HOP-62 NSCLC; 6.37 µM with UACC-257 melanoma; 2.91 µM in the assay with SK-MEL-5 melanoma; 7.48 µM in the assay with HL-60(TB) leukemia; more than 100 µM in the assay with UACC-62 melanoma; more than 100 µM in the assay with 786-0 renal. This compound returned a TGI in the assay with NCI-H226 lung of more than 100 µM.
In the case of `CC[C@H](C)N(CCN)C(=O)c1cc2ccccc2c(-c2ccccc2Cl)n1`, the TGI in the assay on SK-MEL-2 melanoma is 33.5 µM; in the assay on HOP-62 NSCLC, 33.3 µM; in the assay with UACC-257 melanoma it was 3.37 µM; with HL-60(TB) leukemia, 23.1 µM; in the assay on UACC-62 melanoma it was 29.5 µM; in the assay on 786-0 renal, more than 100 µM. Moreover, the TGI with MOLT-4 leukemia was determined as 24.9 µM; in the assay on NCI-H226 lung, 29.7 µM.
With `Nc1ccn(CCOC(=O)c2ccccc2)c(=O)n1`, the TGI in the assay with SK-MEL-2 melanoma, with HOP-92 NSCLC, with HOP-62 NSCLC, in the assay with UACC-257 melanoma, in the assay on SK-MEL-5 melanoma and in the assay with HL-60(TB) leukemia was more than 100 µM each time. Moreover, the TGI in the assay with UACC-62 melanoma, with 786-0 renal and in the assay with NCI-H226 lung was more than 100 µM throughout.
